Experimental data as given in patent US11858905B1, “Cathepsin L inhibitors” (priority 2023, dated 2024).
Like-named read-outs stand apart in the source and are kept apart here.

Tests used:
human CatL = human CatL (Homo sapiens (Human), UniProt P07711); assay: Human Cathepsin L (CatL) enzymatic assay; type: biochemical
Description: Human Cathepsin L (CatL) Enzymatic Assay
60 μL of the compounds were added to 384-well dilution plate. The compound solution was diluted for 1:3 in succession in DMSO for each column for 10 pts. 0.05 μL diluted compound solution was added in each row to 384 assay plates (Corning 4514) using Echo (LABCYTE 655), each column containing 2 replicates. 5 μL working solution of human CatL enzyme (Abcam #ab81780) was added to 384-well assay plate, centrifuge 1000 rpm for 1 min. The mixture was incubated at […] for 15 min, then add 5 μL working solution of CatL substrate (Genscript #C7360HB140_5) to initiate the reaction (CatL: 0.05 nM, Substrate: 500 nM). Incubate at […] for 30 min. Reading Ex370 nm and Em460 nm fluorescence signals with BMG CLARIO Star Plusaucu. Percent inhibition for each compound was calculated and IC50 (half maximal inhibitory concentration) was fitted from non-linear regression by XLfit 5.5.0.

SARS-CoV-2 PsVs = assay: microbe, parasite or virus in culture; type: cell-based; details: Severe acute respiratory syndrome coronavirus 2, Vero C1008, 24 h; for activity at 0.5 µM: read-out: % Infection rate at 500 nM; for activity at 5 µM: read-out: % Infection rate at 5 uM
[1] = CatL 0.05 nM, substrate 500 nM, pH 5.5, read-out: Enzymatic inhibition IC50
[2] = summary of Table 2, read-out: IC50 for inhibiting CatL

human CatL, sequence (P07711 whole entry, looked up): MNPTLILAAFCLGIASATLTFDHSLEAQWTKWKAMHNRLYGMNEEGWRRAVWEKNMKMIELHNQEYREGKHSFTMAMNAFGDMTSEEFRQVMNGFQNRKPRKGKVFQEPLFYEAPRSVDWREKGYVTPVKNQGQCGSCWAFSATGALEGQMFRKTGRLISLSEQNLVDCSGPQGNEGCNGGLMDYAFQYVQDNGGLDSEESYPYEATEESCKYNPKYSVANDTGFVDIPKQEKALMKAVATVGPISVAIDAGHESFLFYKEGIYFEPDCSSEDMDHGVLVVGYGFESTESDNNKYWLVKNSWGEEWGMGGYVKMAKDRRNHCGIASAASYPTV

Row | SMILES | IC50 (human CatL; [1]) [nM] | activity at 0.5 µM (SARS-CoV-2 PsVs) [%] | activity at 5 µM (SARS-CoV-2 PsVs) [%] | IC50 (human CatL; [2]) [nM]
1 | N#CC1(NC(=O)[C@H](Cc2nc3ccccc3o2)NC(=O)c2cccc(Cl)c2)CC1 [Compound 1, (S)—N-(3-(benzo[d]oxazol-2-yl)-1-((1-cyanocyclopropyl)amino)-1-oxopropan-2-yl)-3-chlorobenzamide] | 14.1 | 69 | 39 | 
2 | N#CC1(NC(=O)[C@H](Cc2nc3c(Br)cccc3o2)NC(=O)c2cccc(Cl)c2)CC1 [Compound 2, (S)—N-(3-(4-bromobenzo[d]oxazol-2-yl)-1-((1-cyanocyclopropyl)amino)-1-oxopropan-2-yl)-3-chlorobenzamide] | 7.5 | 55 | 12 | < 10
3 | N#CC1(NC(=O)[C@H](Cc2nc3cccc(Br)c3o2)NC(=O)c2cccc(Cl)c2)CC1 [Compound 3, (S)—N-(3-(7-bromobenzo[d]oxazol-2-yl)-1-((1-cyanocyclopropyl)amino)-1-oxopropan-2-yl)-3-chlorobenzamide] | 5.9 | 65 | 10 | < 10
4 | N#CC1(NC(=O)[C@H](Cc2nc3ccc(F)cc3o2)NC(=O)c2cccc(Cl)c2)CC1 [Compound 4, (S)-3-chloro-N-(1-((1-cyanocyclopropyl)amino)-3-(6-fluorobenzo[d]oxazol-2-yl)-1-oxopropan-2-yl)benzamide] | 34.9 | 81 | 51 | 
5 | N#Cc1cccc2nc(C[C@H](NC(=O)c3cccc(Cl)c3)C(=O)NC3(C#N)CC3)oc12 [Compound 5, (S)-3-chloro-N-(3-(7-cyanobenzo[d]oxazol-2-yl)-1-((1-cyanocyclopropyl)amino)-1-oxopropan-2-yl)benzamide] | 122 | 91 | 81 | 
6 | N#CC1(NC(=O)[C@H](Cc2nc3cccc(Cl)c3o2)NC(=O)c2cccc(Cl)c2)CC1 [Compound 6, (S)-3-chloro-N-(3-(7-chlorobenzo[d]oxazol-2-yl)-1-((1-cyanocyclopropyl)amino)-1-oxopropan-2-yl)benzamide] | 7 | 75 | 20 | < 10
7 | N#CC1(NC(=O)[C@H](Cc2nc3c(Cl)cccc3o2)NC(=O)c2cccc(Cl)c2)CC1 [Compound 7, (S)-3-chloro-N-(3-(4-chlorobenzo[d]oxazol-2-yl)-1-((1-cyanocyclopropyl)amino)-1-oxopropan-2-yl)benzamide] | 21.1 | 96 | 48 | 
8 | N#CC1(NC(=O)[C@H](Cc2nc3cc(Cl)ccc3o2)NC(=O)c2cccc(Cl)c2)CC1 [Compound 8, (S)-3-chloro-N-(3-(5-chlorobenzo[d]oxazol-2-yl)-1-((1-cyanocyclopropyl)amino)-1-oxopropan-2-yl)benzamide] | 17.4 | 92 | 69 | 
9 | N#CC1(NC(=O)[C@H](Cc2nc3ccc(Cl)cc3o2)NC(=O)c2cccc(Cl)c2)CC1 [Compound 9, (S)-3-chloro-N-(3-(6-chlorobenzo[d]oxazol-2-yl)-1-((1-cyanocyclopropyl)amino)-1-oxopropan-2-yl)benzamide] | 30.5 | 97 | 73 | 
10 | N#CC1(NC(=O)[C@H](Cc2nc3cc(C(F)(F)F)ccc3o2)NC(=O)c2cccc(Cl)c2)CC1 [Compound 10, (S)-3-chloro-N-(1-((1-cyanocyclopropyl)amino)-1-oxo-3-(5-(trifluoromethyl)benzo[d]oxazol-2-yl)propan-2-yl)benzamide] | 51.5 | 97 | 96 | 
11 | N#CC1(NC(=O)[C@H](Cc2nc3ccc(C(F)(F)F)cc3o2)NC(=O)c2cccc(Cl)c2)CC1 [Compound 11, (S)-3-chloro-N-(1-((1-cyanocyclopropyl)amino)-1-oxo-3-(6-(trifluoromethyl)benzo[d]oxazol-2-yl)propan-2-yl)benzamide] | 94.6 | 86 | 81 | 
12 | N#CC1(NC(=O)[C@H](Cc2nc3cccc(C(F)(F)F)c3o2)NC(=O)c2cccc(Cl)c2)CC1 [Compound 12, (S)-3-chloro-N-(1-((1-cyanocyclopropyl)amino)-1-oxo-3-(7-(trifluoromethyl)benzo[d]oxazol-2-yl)propan-2-yl)benzamide] | 235 |  |  | 
13 | Cn1nc(C(C)(C)C)cc1C(=O)N[C@@H](Cc1nc2ccccc2o1)C(=O)NC1(C#N)CC1 [Compound 13, (S)—N-(3-(benzo[d]oxazol-2-yl)-1-((1-cyanocyclopropyl)amino)-1-oxopropan-2-yl)-3-(tert-butyl)-1-methyl-1H-pyrazole-5-carboxamide] | 3.9 | 55 | 10 | < 10
14 | Cc1cccc(C(=O)N[C@@H](Cc2nc3ccccc3o2)C(=O)NC2(C#N)CC2)n1 [Compound 14, (S)—N-(3-(benzo[d]oxazol-2-yl)-1-((1-cyanocyclopropyl)amino)-1-oxopropan-2-yl)-6-methylpicolinamide] | 534 | 103 | 97 | 
15 | N#CCNC(=O)[C@H](Cc1nc2ccccc2o1)NC(=O)c1cc(C2CC2)nn1C1CC1 [Compound 15, (S)—N-(3-(benzo[d]oxazol-2-yl)-1-((cyanomethyl)amino)-1-oxopropan-2-yl)-1,3-dicyclopropyl-1H-pyrazole-5-carboxamide] | 19.4 | 79 | 20 | < 50
16 | Cc1nn(C2CC2)cc1C(=O)N[C@@H](Cc1nc2ccccc2o1)C(=O)NC1(C#N)CC1 [Compound 16, (S)—N-(3-(benzo[d]oxazol-2-yl)-1-((1-cyanocyclopropyl)amino)-1-oxopropan-2-yl)-1-cyclopropyl-3-methyl-1H-pyrazole-4-carboxamide] | 139 |  |  | 
17 | Cc1nn(C2CC2)cc1C(=O)N[C@@H](Cc1nc2cc(F)c(F)cc2o1)C(=O)NC1(C#N)CC1 [Compound 17, (S)—N-(1-((1-cyanocyclopropyl)amino)-3-(5,6-difluorobenzo[d]oxazol-2-yl)-1-oxopropan-2-yl)-1-cyclopropyl-3-methyl-1H-pyrazole-4-carboxamide] | 201 |  |  | 
18 | N#CC1(NC(=O)[C@H](Cc2nc3ccccc3o2)NC(=O)c2cn(C3CC3)nc2C(F)(F)F)CC1 [Compound 18, (S)—N-(3-(benzo[d]oxazol-2-yl)-1-((1-cyanocyclopropyl)amino)-1-oxopropan-2-yl)-1-cyclopropyl-3-(trifluoromethyl)-1H-pyrazole-4-carboxamide] | 50.7 | 92 | 72.6 | 
19 | N#CC1(NC(=O)[C@H](Cc2nc3ccccc3o2)NC(=O)c2cn(C3CC3)nc2C(F)F)CC1 [Compound 19, (S)—N-(3-(benzo[d]oxazol-2-yl)-1-((1-cyanocyclopropyl)amino)-1-oxopropan-2-yl)-1-cyclopropyl-3-(difluoromethyl)-1 H-pyrazole-4-carboxamide] | 44.6 | 101 | 77.3 | 
20 | CC(C)(C)c1cc(C(=O)N[C@@H](Cc2nc3cccc(Cl)c3o2)C(=O)NC2(C#N)CC2)n(C2CC2)n1 [Compound 20, (S)-3-(tert-butyl)-N-(3-(7-chlorobenzo[d]oxazol-2-yl)-1-((1-cyanocyclopropyl)amino)-1-oxopropan-2-yl)-1-cyclopropyl-1H-pyrazole-5-carboxamide] | 4.2 | 40 | 6.3 | 
21 | CC(C)(C)c1cc(C(=O)N[C@@H](Cc2nc3cc(F)cc(Cl)c3o2)C(=O)NC2(C#N)CC2)n(C2CC2)n1 [Compound 21, (S)-3-(tert-butyl)-N-(3-(7-chloro-5-fluorobenzo[d]oxazol-2-yl)-1-((1-cyanocyclopropyl)amino)-1-oxopropan-2-yl)-1-cyclopropyl-1 H-pyrazole-5-carboxamide] | 8.2 | 60 | 12 | 
22 | CC(C)(C)c1cc(C(=O)N[C@@H](Cc2nc3cc(F)cc(Cl)c3o2)C(=O)NC2(C#N)CC2)n(C2COC2)n1 [Compound 22, (S)-3-(tert-butyl)-N-(3-(7-chloro-5-fluorobenzo[d]oxazol-2-yl)-1-((1-cyanocyclopropyl)amino)-1-oxopropan-2-yl)-1-(oxetan-3-yl)-1H-pyrazole-5-carboxamide] | 5.3 | 33 | 13 | 
23 | N#CC1(NC(=O)[C@H](Cc2nc3c(-c4cn[nH]c4)cccc3o2)NC(=O)c2cccc(Cl)c2)CC1 [Compound 23, (S)—N-(3-(4-(1H-pyrazol-4-yl)benzo[d]oxazol-2-yl)-1-((1-cyanocyclopropyl)amino)-1-oxopropan-2-yl)-3-chlorobenzamide] | 361 | 93 | 98 | 
24 | CN1CCN(c2ccc3nc(C[C@H](NC(=O)c4cccc(Cl)c4)C(=O)NC4(C#N)CC4)oc3c2)CC1 [Compound 24, (S)-3-chloro-N-(1-((1-cyanocyclopropyl)amino)-3-(6-(4-methylpiperazin-1-yl)benzo[d]oxazol-2-yl)-1-oxopropan-2-yl)benzamide] | 9.7 | 34 | 2 | < 10
